For series [1] the following is noted: Crystal; DTA.
A short description of series [2]: Molar enthalpy of transition or fusion. As to conditions: Crystal; DSC.

Numbers after ± are expanded uncertainties.

With `NC(=O)CC(N)=O` [1,3-propanedioic acid, diamide], the Normal melting temperature in series [1] was found to be 170.00 ± 0.5 °C. Moreover, in series [2], the “Molar enthalpy of transition or fusion” value is 5.55 ± 0.172 kcal/mol.

These data come from the NIST ThermoML archive (doi:10.1016/j.tca.2008.10.019).
